molecular target: T1, AKT1 (Homo sapiens, UniProt P31749); experiment: HTS ATP-utilizing enzyme assay, off-chip mobility-shift (Caliper HTS 250); assay type: biochemical; settings: kinase named = inhibitory activity/selectivity; test compound 10 μM; active = greater than three-sigma from mean
T1 construct: purchased Upstate 14-276
From the text: The following procedures describe the reagent and plate preparation for a HTS of an ATP-utilizing enzyme, such as a protein kinase, run in an off-chip mobility-shift assay format. The following provides an HTS protocol for running a protein kinase HTS screen on a Caliper HTS 250 microfluidics system. The following parameters are dependent on the protein kinase used and can be determined by one skilled in the art as part of a typical assay development process. For example, the peptide substrate used can be identified from the current literature, by screening a peptide library of potential protein kinase substrates, or by other applicable means accepted in the field.
The following table provides typical screen assay parameters appropriate for a Caliper HTS 250 microfluidics system used to assay AKT1. Parameters used to assay other protein kinases can be determined by one skilled in the art.
Assays to determine the kinase inhibitory activity of chemical entities of the present disclosure were performed using a Caliper HTS 250 microfluidics device, Greiner U-bottom assay plates, a Multidrop for transfer of reagents, and Biomek FX (AMNCBM03) software. Initially, 2.4 μL of a 1 mM solution of a test compound in 100% DMSO was added to a well of the Greiner U-bottom plate. A single Greiner U-bottom plate having 24×16 wells could include multiple test compounds. […] Using the Biomek FX, 10 μL of 0.5 M EDTA was added by the span-8 to wells, indicated as 100% Control and 2.4 μL of 100% DMSO was added by the span-8 to wells, indicated as 0% Control. […] The total reaction volume in each well was 25 μL, and the concentration of the test compound was 10 μM. The assay plate was incubated for 2.5 hrs at 20° C. to 22° C. […] The inhibition of the ATP-utilizing enzyme, such as a particular protein kinase, was determined by measuring the ratio of the peptide substrate to phosphorylated product for each well of the assay plate using the Caliper HTS 250 system.
The use of three-sigma statistical limits represents a conservative method for declaring potential hits among targets. The three-sigma activity, as well as the mean population activity, can be different for each target enzyme.
Each chemical entity listed in Table 2 was tested for protein kinase inhibitory activity according to the biological assays and definitions of protein kinase inhibitory activity as described herein.

T1 sequence (P31749 whole entry): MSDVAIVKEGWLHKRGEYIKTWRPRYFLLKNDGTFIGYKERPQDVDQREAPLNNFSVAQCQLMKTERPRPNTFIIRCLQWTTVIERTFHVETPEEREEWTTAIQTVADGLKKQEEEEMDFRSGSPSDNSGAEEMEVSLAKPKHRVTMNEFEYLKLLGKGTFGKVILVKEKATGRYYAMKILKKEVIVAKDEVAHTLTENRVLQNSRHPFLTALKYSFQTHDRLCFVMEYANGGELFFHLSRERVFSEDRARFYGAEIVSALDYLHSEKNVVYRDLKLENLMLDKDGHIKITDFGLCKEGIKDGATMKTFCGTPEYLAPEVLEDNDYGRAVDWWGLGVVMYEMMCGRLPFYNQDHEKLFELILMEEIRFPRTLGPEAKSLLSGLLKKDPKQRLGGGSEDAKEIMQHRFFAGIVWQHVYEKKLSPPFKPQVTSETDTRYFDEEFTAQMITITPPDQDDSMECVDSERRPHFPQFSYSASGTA

Activity, AKT1:
COc1ccc2oc(-c3csc(N(CCCN4CCOCC4)C(=O)c4cccs4)n3)cc2c1 [N-(4-(5-methoxybenzofuran-2-yl)thiazol-2-yl)-N-(3-morpholinopropyl)thiophene-2-carboxamide]
Cn1cccc1C(=O)N(CCCN1CCOCC1)c1nc(-c2cc(-c3ccccc3)no2)cs1 [1-methyl-N-(3-morpholinopropyl)-N-(4-(3-phenylisoxazol-5-yl)thiazol-2-yl)-1H-pyrrole-2-carboxamide]
O=C(c1cccs1)N(CCCN1CCOCC1)c1nc(-c2ccc3ccccc3c2)cs1 [N-(3-morpholinopropyl)-N-(4-(naphthalen-2-yl)thiazol-2-yl)thiophene-2-carboxamide]
NC(=O)C1CCCN1C(=O)CCN(C(=O)c1cccs1)c1nc(-c2cc3ccccc3o2)cs1 (stereo not drawn) [1-(3-(N-(4-(benzofuran-2-yl)thiazol-2-yl)thiophene-2-carboxamido)propanoyl)pyrrolidine-2-carboxamide]
O=C(c1cccs1)N(CCCN1CCC[C@H]1CO)c1nc(-c2cc3ccccc3o2)cs1 [(S)—N-(4-(benzofuran-2-yl)thiazol-2-yl)-N-(3-(2-(hydroxymethyl)pyrrolidin-1-yl)propyl)thiophene-2-carboxamide]
O=C(c1cccs1)N(CCCN1CCC(CO)CC1)c1nc(-c2cc3ccccc3o2)cs1 [N-(4-(benzofuran-2-yl)thiazol-2-yl)-N-(3-(4-(hydroxymethyl)piperidin-1-yl)propyl)thiophene-2-carboxamide]
COc1ccc(-c2csc(N(CCCN3CCOCC3)C(=O)c3ccc(F)cc3)n2)cc1 [4-fluoro-N-(4-(4-methoxyphenyl)thiazol-2-yl)-N-(3-morpholinopropyl)benzamide]
O=C(c1ccc(-c2csc(N(CCCN3CCOCC3)C(=O)c3cccs3)n2)cc1)N1CCOCC1 [N-(4-(4-(morpholine-4-carbonyl)phenyl)thiazol-2-yl)-N-(3-morpholinopropyl)thiophene-2-carboxamide]
COc1ccc(-c2csc(N(CCCc3ccccc3)C(=O)c3cccs3)n2)cc1OC [N-(4-(3,4-dimethoxyphenyl)thiazol-2-yl)-N-(3-phenylpropyl)thiophene-2-carboxamide]
O=C(CCN(C(=O)c1cccs1)c1nc(-c2cc3ccccc3o2)cs1)NCc1ccoc1 [N-(4-(benzofuran-2-yl)thiazol-2-yl)-N-(3-(furan-3-ylmethylamino)-3-oxopropyl)thiophene-2-carboxamide]
O=C(NCCN1CCOCC1)c1ccc(-c2csc(N(CCCN3CCOCC3)C(=O)c3cccs3)n2)cc1 [N-(4-(4-(2-morpholinoethylcarbamoyl)phenyl)thiazol-2-yl)-N-(3-morpholinopropyl)thiophene-2-carboxamide]
O=C(c1cccs1)N(CCCN1CCCCC1CCO)c1nc(-c2cc3ccccc3o2)cs1 (stereo not drawn) [N-(4-(benzofuran-2-yl)thiazol-2-yl)-N-(3-(2-(2-hydroxyethyl)piperidin-1-yl)propyl)thiophene-2-carboxamide]
COc1ccc(-c2csc(N(CCCN3CCOCC3)C(=O)c3ccccn3)n2)cc1OC [N-(4-(3,4-dimethoxyphenyl)thiazol-2-yl)-N-(3-morpholinopropyl)picolinamide]
O=C(c1cccs1)N(CCCN1CCOCC1)c1nc(C2CCCC2)cs1 [N-(4-cyclopentylthiazol-2-yl)-N-(3-morpholinopropyl)thiophene-2-carboxamide]
O=C(CCN(C(=O)c1cccs1)c1nc(-c2cc3ccccc3o2)cs1)N(CCO)CCO [N-(4-(benzofuran-2-yl)thiazol-2-yl)-N-(3-(bis(2-hydroxyethyl)amino)-3-oxopropyl)thiophene-2-carboxamide]

— patent publication US7795290B2 (Genentech, Inc., priority 2004, dated 2010)
